Measurements: patent US20250188162A1, “INHIBITOR OF INTERLEUKIN-1 RECEPTOR TYPE 1 FOR USE IN THE TREATMENT OF CANCER” (Buzzard Pharmaceuticals AB, priority 2022, published 2025)

Assays:
[1] = system: NF-κB; assay: NF-κB reporter response of pNGL RAW264.7 macrophages to tumor-conditioned media with bortezomib pre-treatment; assay type: cell-based, murine; conditions: pre-treatment 1 μg/mL (3 μM) for 1 hour
Description: FIG. 3. Tumor-secreted factors drive IKKβ activation, differentiation, and IL-1β secretion in macrophages. (A) Color-coded cancer cells with Kras mutation status. (B-E) Bioluminescent images with pseudocolor scale (B, E), immunoblots (C), and data summaries (D, E) from exposure of RAW264.7 macrophages stably expressing pNGL (B-D) and murine bone marrow derived macrophages (BMDM) obtained from NGL mice after one-week 100 ng/ml M-CSF exposure (E) to cell-free tumor-conditioned media or DMEM (white boxes) with or without bortezomib pre-treatment (1 μg/mL˜3 µM for 1 hour). (D, E) n=5/group; P, probability, one or two-way ANOVA; **** and ####, P<0.0001 compared with other groups or saline-treated cells, respectively, Bonferroni post-tests. (F) Flow cytometry-assessed differentiation marker expression of murine bone marrow cells before (day 0) and after (day 7) one-week M-CSF exposure. (G) Microarray strategy and top-five differentially expressed genes (ΔGE) of murine BMDM compared with cancer cells (ΔGE1) and of tumor-conditioned BMDM compared with naïve BMDM (ΔGE2). n=5/group; P, probability, one-way ANOVA. (H) Bioluminescent images and data summary of NGL, NGL; Tnf−/−, and NGL;Il1b−/− mice 14 days post-pleural injection of LLC cells. n=13/group; P, probability, one-way ANOVA; ** and ***, P<0.01 and P<0.001, respectively, compared with NGL mice, Bonferroni post-tests. […]

[2] = system: NF-κB; assay: NF-κB ligand screen in pNGL-expressing RAW264.7 macrophages; assay type: cell-based, murine; conditions: recombinant VCAN 1 nM, compared with LPS 1 μg/mL
Excerpt: (§1) FIG. 4. Tumor-secreted versican drives macrophage IKKβ, metastasis, and is a cancer biomarker. (A-E) Kras-mutant and wild-type cancer cell RNA and supernatants were subjected to microarray and LC-MSMS analyses, respectively. Shown are experimental design (A), top-20 over-represented transcripts (B) and secretory proteins (C), and Vcan/VCAN mRNA/protein expression (D, E). n=2-3/group; P, probability, two-way ANOVA; Bold letters, false discovery rate (FDR) q<0.05 compared with Kras-wild-type cells, two-stage linear step-up procedure of Benjamini, Hochberg, and Yekutieli. (F, G) Representative bioluminescent images (F) and data summary (G) from pNGL RAW264.7 cells exposed to lipopolysaccharide (LPS; 1 μg/mL) or recombinant proteins (1-2 nM). n=5/group; P, probability, two-way ANOVA; ****, P<0.0001 compared with other groups, Bonferroni post-tests. (H) Immunoblots of mouse BMDM exposed to VCAN. n=5/group. (I-M) LLC cells stably expressing control (shC) and anti-Vcan (shVcan) shRNA were validated and injected intrapleurally into NGL mice. […]
Mice were imaged for NF-κB reporter bioluminescent signal daily starting at day 10 post-tumor cell injection until sacrifice. […] Data were analyzed using Living Image v.4.2 (Perkin-Elmer, Waltham, MA) as described previously (9, 10, 15, 15, 22, 29, 39). […]

[3] = system: IKKβ; assay: immunoblots of mouse BMDM exposed to VCAN; assay type: cell-based; conditions: primary murine BMDM, recombinant human versican 1 nM
Excerpt: as §1, with “mice. Shown are immunoblots (I), Vcan mRNA expression (J), and data summaries (K, L) and representative photographic and bioluminescent images (M) taken 14 days post-tumor cells. (I, J) n=5/group; (K-M) n=16/group; P, probability, unpaired Student's t-test.” for “mice.”

[4] = system: incident lung cancer; conditions: exploratory analysis of CANTOS; cited from earlier work
[5] = system: non-small cell lung cancer (NSCLC); conditions: second/third-line with docetaxel, irrespective of histologic subtype and driver mutation; cited from earlier work

Compound: CC(C)C[C@H](NC(=O)[C@H](Cc1ccccc1)NC(=O)c1cnccn1)B(O)O [bortezomib]
- NF-κB response to KrasMUT tumor-conditioned media [1]: attenuated

Compound: VCAN: recombinant human active versican, TLR2 ligand glycoprotein
- macrophage NF-κB-driven transcription [2]: potently activates macrophage NF-κB-driven transcription to the same degree as the TLR4 ligand lipopolysaccharide (LPS)
- IKKβ induction [3]: induced IKKβ in primary murine BMDM

Compound: canakinumab: anti-IL-1β neutralizing monoclonal antibody
- effect against incident lung cancer [4]: strong protective effects against incident lung cancer
- trial outcome [5]: negative
